Like-named read-outs stand apart in the source and are kept apart here.
Assays:
DGAT2 = DGAT2 (Homo sapiens (Human), UniProt Q96PD7); assay: IC50 determination for DGAT2 inhibitors in human hepatocytes ([1,3-14C]-glycerol incorporation into lipids); format: cell-based; conditions: average IC50; cryopreserved human hepatocytes, selective DGAT1 inhibitor (3 μM) in all wells, 3 hour incubation with [1,3-14C]-glycerol; read-out: IC50 (nM) in primary human hepatocyte
Procedure: For evaluation of the effects of DGAT2 inhibitors in a cell-based setting, cryopreserved human hepatocytes (Lot QOC, Celsis, Chicago, Ill.) were thawed and plated onto type I collagen-coated plates according to the manufacturer's instructions. After 24 hours overnight recovery period, the cells were overlayed with media containing 250 μg/ml Matrigel (BD Biosciences, San Jose, Calif.). The following day, media was aspirated and replaced with serum-free Williams Media E (Life Technologies, Grand Island, N.Y.) containing 400 μM sodium dodecanoate (Sigma-Aldrich, St. Louis, Mo.). Forty minutes later, DGAT2 inhibitors (prepared as 100× stocks in 25% DMSO, 75% Williams' Media E) were added to the desired final concentration. […] After a 20 minute preincubation, 0.2 μCi [1,3-^14C]-glycerol (American Radio Chemicals, St. Louis, Mo.) was added to each well and mixed by gentle pipetting prior to a 3 hour incubation. At this point, media was aspirated and the cells were lysed in isopropyl alcohol:tetrahydrofuran (9:1) prior to centrifugation at 3000 rpm for 5 minutes. Radiolabeled lipids were resolved using a 2-solvent system by thin layer chromatography using standard technique (solvent 1 contained ethyl acetate: isopropyl alcohol: chloroform:methanol:0.25% potassium chloride in water (100:100:100:40.2:36.1, v/v/v/v) and solvent 2 contained hexane: diethyl ether: acetic acid (70:27:3, v/v/v)). After separation, radiolabeled lipids were visualized using a Molecular Dynamics' PhosphorImager system. The half maximal inhibitory concentrations (IC50 values) were determined using Graph Pad Prism (GraphPad Software, Inc., La Jolla, Calif.).

Human DGAT2 (hDGAT2) = Human DGAT2 (hDGAT2) (Homo sapiens (Human), UniProt Q96PD7); assay: In vitro DGAT2 assay, IC50 determination with hDGAT2 membrane fraction; format: biochemical
How it was run: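 CHAPS-solubilized membrane fraction of FLAG-tagged hDGAT2 from baculovirus-infected SF9 cells (0.01 mg/mL) in 100 mM Hepes-NaOH pH 7.4, 20 mM MgCl2, 200 nM methyl arachidonyl fluorophosphonate; compounds pre-incubated 20 min with 0.04% BSA. Reaction 40 min at room temperature, stopped with H3PO4. [^14C]tridecanoylglycerol in organic phase counted; 11-point geometric mean IC50.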

[1] = geometric mean, background for complete inhibition of DGAT2 obtained with 50 μM (1R,2R)-2-({3′-Fluoro-4′-[(6-fluoro-1,3-benzothiazol-2-yl)amino]-1,1′-biphenyl-4-yl}carbonyl)cyclopentanecarboxylic acid, read-out: DGAT2 IC50
[2] = geometric mean, background for complete inhibition of DGAT2 obtained with Example 196-A instead of the cyclopentanecarboxylic acid reference, read-out: DGAT2 IC50 (nM), values in the parentheses

Human DGAT2 (hDGAT2), sequence (Q96PD7 whole entry): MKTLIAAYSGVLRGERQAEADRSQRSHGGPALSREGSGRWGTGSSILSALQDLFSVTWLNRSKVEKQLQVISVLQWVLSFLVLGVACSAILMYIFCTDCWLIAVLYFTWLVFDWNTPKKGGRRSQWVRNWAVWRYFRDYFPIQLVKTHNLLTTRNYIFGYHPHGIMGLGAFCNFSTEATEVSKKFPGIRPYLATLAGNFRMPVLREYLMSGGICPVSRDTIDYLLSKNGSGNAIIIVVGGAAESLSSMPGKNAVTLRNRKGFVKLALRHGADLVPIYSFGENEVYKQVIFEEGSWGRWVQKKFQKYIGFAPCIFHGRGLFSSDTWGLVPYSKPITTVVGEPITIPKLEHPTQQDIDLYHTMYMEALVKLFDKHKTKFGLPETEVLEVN
DGAT2, sequence (Q96PD7 whole entry): as above

| Molecule | IC50 (DGAT2) | IC50 (Human DGAT2 (hDGAT2); [1]) | IC50 (Human DGAT2 (hDGAT2); [2]) | IC50 (Human DGAT2 (hDGAT2); read-out: DGAT2 IC50) |
| --- | --- | --- | --- | --- |
| CC(c1nc2ccc(N3CCC[C@@H](C(=O)N4CCCC4)C3)nc2[nH]1)n1cccn1 (stereo partly drawn) [Example 58, (R)-(1-(2-(1-(1H-Pyrazol-1-yl)ethyl)-3H-imidazo[4,5-b]pyridin-5-yl)piperidin-3-yl)(pyrrolidin-1-yl)methanone] | 86.8 nM | 363 nM | – | – |
| O=C([C@@H]1CCCN(c2ccc3nc(C4(n5cc(F)cn5)CC4)[nH]c3n2)C1)N1CCCC1 [Example 73, (R)-(1-(2-(1-(4-Fluoro-1H-pyrazol-1-yl)cyclopropyl)-3H-imidazo[4,5-b]pyridin-5-yl)piperidin-3-yl)(pyrrolidin-1-yl)methanone] | 7.9 nM | 96.9 nM | 85 nM | – |
| N#Cc1cnn(C2(c3nc4ccc(N5CCC[C@@H](C(=O)N6CCCC6)C5)nc4[nH]3)CC2)c1 [Example 76, (R)-1-(1-(5-(3-(Pyrrolidine-1-carbonyl)piperidin-1-yl)-3H-imidazo[4,5-b]pyridin-2-yl)cyclopropyl)-1H-pyrazole-4-carbonitrile] | 25.1 nM | 227 nM | – | – |
| O=C([C@@H]1CCCN(c2ccc3nc(C4(n5cc(C(F)(F)F)cn5)CC4)[nH]c3n2)C1)N1CCCC1 [Example 78, (R)-Pyrrolidin-1-yl(1-(2-(1-(4-(trifluoromethyl)-1H-pyrazoL-1-yl)cyclopropyl)-3H-imidazo[4,5-b]pyridin-5-yl)piperidin-3-yl)methanone] | 9.4 nM | 83.8 nM | – | – |
| O=C([C@@H]1CCCN(c2ccc3nc(C4(c5cccnc5)CC4)[nH]c3n2)C1)N1CCCC1 [Example 81, (R)-(1-(2-(1-(Pyridin-3-yl)cyclopropyl-1)-3H-imidazo[4,5-b]pyridin-5-yl)piperidin-3-yl)(pyrrolidin-1-yl)methanone] | 47.7 nM | 204 nM | – | – |
| O=C([C@@H]1CCCN(c2ccc3nc(C4(c5ccccn5)CC4)[nH]c3n2)C1)N1CCCC1 [Example 82, (R)-(1-(2-(1-(Pyridin-2-yl)cyclopropyl)-3H-imidazo[4,5-b]pyridin-5-yl)piperidin-3-yl)(pyrrolidin-1-yl)methanone] | 15.8 nM | 165 nM | – | – |
| O=C([C@@H]1CCCN(c2ccc3nc(-c4ccnc(C5CC5)n4)[nH]c3n2)C1)N1CCCC1 [Example 95, (R)-(1-(2-(2-Cyclopropylpyrimidin-4-yl)-3H-imidazo[4,5-b]pyridin-5-yl)piperidin-3-yl)(pyrrolidin-1-yl)methanone] | 15.9 nM | 18.2 nM | – | – |
| O=C([C@@H]1CCCN(c2ncc3nc(C4(n5cc(Cl)cn5)CC4)[nH]c3n2)C1)N1CCCC1 [Example 108, (R)-(1-(8-(1-(4-Chloro-1H-pyrazol-1-yl)cyclopropyl)-9H-purin-2-yl)piperidin-3-yl)(pyrrolidin-1-yl)methanone] | 2.8 nM | 28.7 nM | 26.2 nM | – |
| C[C@H]1CCN(c2ncc3nc(C4(n5cccn5)CC4)[nH]c3n2)C[C@H]1C(=O)N1CCCC1 [Example 208, ((3S,4S)-1-(8-(1-(1H-pyrazol-1-yl)cyclopropyl)-9H-purin-2-yl)-4-methylpiperidin-3-yl)(pyrrolidin-1-yl)methanone] | – | – | – | 37400 nM |
| O=C([C@@H]1CCCN(c2ncc3nc(C4(n5cccn5)CC4)[nH]c3n2)C1)N1CCCC1 [Example 210, (R)-(1-(8-(1-(1H-Pyrazol-1-yl)cyclopropyl)-9H-purin-2-yl)piperidin-3-yl)(pyrrolidin-1-yl)methanone] | – | 342 nM | – | – |
| O=C(Nc1ccc(C(F)(F)F)nc1)c1nc2ccc(N3CCC[C@@H](C(=O)N4CCCC4)C3)nc2[nH]1 [Example 211, (R)-5-(3-(Pyrrolidine-1-carbonyl)piperidin-1-yl)-N-(6-(trifluoromethyl)pyridin-3-yl)-3H-imidazo[4,5-b]pyridine-2-carboxamide] | – | 845 nM | – | – |
| O=C([C@@H]1CCCN(c2ccc3nc(C4(n5cc(Cl)cn5)CC4)[nH]c3n2)C1)N1CC=CC1 [Example 212, (R)-(1-(2-(1-(4-Chloro-1H-pyrazol-1-yl)cyclopropyl)-3H-imidazo[4,5-b]pyridin-5-yl)piperidin-3-yl)(2,5-dihydro-1H-pyrrol-1-yl)methanone] | – | 18.9 nM | – | – |
| O=C([C@H]1CN(c2ncc3nc(C4(n5cc(Cl)cn5)CC4)[nH]c3n2)CCO1)N1CCCC1 [Example 213, (R)-(4-(8-(1-(4-Chloro-1H-pyrazol-1-yl)cyclopropyl)-9H-purin-2-yl)morpholin-2-yl)(pyrrolidin-1-yl)methanone] | – | 161 nM | – | – |
| O=C([C@@H]1CCCN(c2ccc3nc(C4(n5nccn5)CC4)[nH]c3n2)C1)N1CCCC1 [Example 214, (R)-(1-(2-(1-(2H-1,2,3-Triazol-2-yl)cyclopropyl)-3H-imidazo[4,5-b]pyridin-5-yl)piperidin-3-yl)(pyrrolidin-1-yl)methanone] | – | 396 nM | – | – |
| O=C([C@@H]1CCCN(c2ccc3nc(C4(n5ccnc5)CC4)[nH]c3n2)C1)N1CCCC1 [Example 215, (R)-(1-(2-(1-(1H-Imidazol-1-yl)cyclopropyl)-3H-imidazo[4,5-b]pyridin-5-yl)piperidin-3-yl)(pyrrolidin-1-yl)methanone] | – | 483 nM | – | – |
| C[C@H]1CC[C@@H](C(=O)N2CCCC2)CN1c1ccc2nc(C3(n4cc(Cl)cn4)CC3)[nH]c2n1 [Example 216, ((3R,6S)-1-(2-(1-(4-Chloro-1H-pyrazol-1-yl)cyclopropyl)-3H-imidazo[4,5-b]pyridin-5-yl)-6-methylpiperidin-3-yl)(pyrrolidin-1-yl)methanone] | – | 9200 nM | – | – |
| C[C@@H]1CC[C@H](C(=O)N2CCCC2)CN1c1ccc2nc(C3(n4cc(Cl)cn4)CC3)[nH]c2n1 [Example 217, ((3S,6R)-1-(2-(1-(4-chloro-1H-pyrazol-1-yl)cyclopropyl)-3H-imidazo[4,5-b]pyridin-5-yl)-6-methylpiperidin-3-yl)(pyrrolidin-1-yl)methanone] | – | – | – | 131 nM |
| O=C([C@@H]1CCCN(c2ccc3nc(-c4ccnc(C5CC5)n4)[nH]c3n2)C1)N1CCC1 [Example 220, (R)-Azetidin-1-yl(1-(2-(2-cyclopropylpyrimidin-4-yl)-3H-imidazo[4,5-b]pyridin-5-yl)piperidin-3-yl)methanone] | – | 270 nM | – | – |
| CN(CC1CC1)C(=O)[C@@H]1CCCN(c2ccc3nc(-c4ccnc(C5CC5)n4)[nH]c3n2)C1 [Example 221, (R)—N-(Cyclopropylmethyl)-1-(2-(2-cyclopropylpyrimidin-4-yl)-3H-imidazo[4,5-b]pyridin-5-yl)-N-methylpiperidine-3-carboxamide] | – | 290 nM | – | – |
| O=C([C@@H]1CCCN(c2ccc3nc(C4(c5cccnn5)CC4)[nH]c3n2)C1)N1CCCC1 [Example 222, (R)-(1-(2-(1-(Pyridazin-3-yl)cyclopropyl)-3H-imidazo[4,5-b]pyridin-5-yl)piperidin-3-yl)(pyrrolidin-1-yl)methanone] | – | 531 nM | – | – |
| Cn1ncnc1C1(c2nc3ccc(N4CCC[C@@H](C(=O)N5CCCC5)C4)nc3[nH]2)CC1 [Example 223, (R)-(1-(2-(1-(1-Methyl-1H-1,2,4-triazol-5-yl)cyclopropyl)-3H-imidazo[4,5-b]pyridin-5-yl)piperidin-3-yl)(pyrrolidin-1-yl)methanone] | – | 1370 nM | – | – |
| [(R)-1-{2-[1-(4-Chloro-1H-pyrazol-1-yl)cyclopropyl]-3H-imidazo[4,5-b]pyridin-5-yl}(2,2,6,6-^2H4)piperidin-3-yl](pyrrolidin-1-yl)methanone [Example 190] | – | – | – | 35.9 nM |
